# What was measured:
# Assay in all cases: pIC50, kinobeads binding competition
# MAP4K2 = molecular target: T1, MAP4K2 (UniProt Q12851)
# T1 sequence (whole entry): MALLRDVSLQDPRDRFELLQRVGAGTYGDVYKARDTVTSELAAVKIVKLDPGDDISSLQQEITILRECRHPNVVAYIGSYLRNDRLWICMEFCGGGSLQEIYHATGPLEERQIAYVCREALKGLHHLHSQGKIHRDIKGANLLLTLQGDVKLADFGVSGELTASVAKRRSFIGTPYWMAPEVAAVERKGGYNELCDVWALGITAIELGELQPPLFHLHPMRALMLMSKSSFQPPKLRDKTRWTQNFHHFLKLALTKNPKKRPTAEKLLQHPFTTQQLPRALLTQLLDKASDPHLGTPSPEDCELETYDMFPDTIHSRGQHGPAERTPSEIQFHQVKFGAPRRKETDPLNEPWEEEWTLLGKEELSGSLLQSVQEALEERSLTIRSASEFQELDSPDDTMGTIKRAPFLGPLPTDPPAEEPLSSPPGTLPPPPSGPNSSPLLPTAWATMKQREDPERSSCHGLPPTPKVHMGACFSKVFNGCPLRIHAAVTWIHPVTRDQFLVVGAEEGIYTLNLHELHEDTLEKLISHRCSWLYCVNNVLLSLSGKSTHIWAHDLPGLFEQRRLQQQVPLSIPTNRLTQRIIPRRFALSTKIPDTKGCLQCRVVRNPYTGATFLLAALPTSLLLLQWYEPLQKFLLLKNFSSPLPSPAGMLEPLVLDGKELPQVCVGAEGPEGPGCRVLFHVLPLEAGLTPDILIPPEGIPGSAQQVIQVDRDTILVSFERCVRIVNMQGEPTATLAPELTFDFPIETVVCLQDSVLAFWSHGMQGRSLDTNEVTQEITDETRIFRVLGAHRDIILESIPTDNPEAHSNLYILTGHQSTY
# In short: (§1)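 To obtain pIC50, fold changes versus vehicle were fitted to logistic dose-response curves (R drc package) across biological duplicates. Protein binding to Kinobeads was quantified by TMT10 LC-MS/MS of digested bead-bound proteins. Treatments used nine concentrations with a top of 30 μM, applied to live Jurkat cells in 1:4 steps for 60 min at 37 °C before lysis, or to Jurkat lysate or a 1:1:1:1 HEK293/K-562/HepG2/placenta lysate mix in 1:5 steps for 60 min at 4 °C.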
# UniProt Q9Y2K2 = molecular target: UniProt Q9Y2K2
# Chain of UniProt Q9Y2K2 (Q9Y2K2 whole entry, looked up): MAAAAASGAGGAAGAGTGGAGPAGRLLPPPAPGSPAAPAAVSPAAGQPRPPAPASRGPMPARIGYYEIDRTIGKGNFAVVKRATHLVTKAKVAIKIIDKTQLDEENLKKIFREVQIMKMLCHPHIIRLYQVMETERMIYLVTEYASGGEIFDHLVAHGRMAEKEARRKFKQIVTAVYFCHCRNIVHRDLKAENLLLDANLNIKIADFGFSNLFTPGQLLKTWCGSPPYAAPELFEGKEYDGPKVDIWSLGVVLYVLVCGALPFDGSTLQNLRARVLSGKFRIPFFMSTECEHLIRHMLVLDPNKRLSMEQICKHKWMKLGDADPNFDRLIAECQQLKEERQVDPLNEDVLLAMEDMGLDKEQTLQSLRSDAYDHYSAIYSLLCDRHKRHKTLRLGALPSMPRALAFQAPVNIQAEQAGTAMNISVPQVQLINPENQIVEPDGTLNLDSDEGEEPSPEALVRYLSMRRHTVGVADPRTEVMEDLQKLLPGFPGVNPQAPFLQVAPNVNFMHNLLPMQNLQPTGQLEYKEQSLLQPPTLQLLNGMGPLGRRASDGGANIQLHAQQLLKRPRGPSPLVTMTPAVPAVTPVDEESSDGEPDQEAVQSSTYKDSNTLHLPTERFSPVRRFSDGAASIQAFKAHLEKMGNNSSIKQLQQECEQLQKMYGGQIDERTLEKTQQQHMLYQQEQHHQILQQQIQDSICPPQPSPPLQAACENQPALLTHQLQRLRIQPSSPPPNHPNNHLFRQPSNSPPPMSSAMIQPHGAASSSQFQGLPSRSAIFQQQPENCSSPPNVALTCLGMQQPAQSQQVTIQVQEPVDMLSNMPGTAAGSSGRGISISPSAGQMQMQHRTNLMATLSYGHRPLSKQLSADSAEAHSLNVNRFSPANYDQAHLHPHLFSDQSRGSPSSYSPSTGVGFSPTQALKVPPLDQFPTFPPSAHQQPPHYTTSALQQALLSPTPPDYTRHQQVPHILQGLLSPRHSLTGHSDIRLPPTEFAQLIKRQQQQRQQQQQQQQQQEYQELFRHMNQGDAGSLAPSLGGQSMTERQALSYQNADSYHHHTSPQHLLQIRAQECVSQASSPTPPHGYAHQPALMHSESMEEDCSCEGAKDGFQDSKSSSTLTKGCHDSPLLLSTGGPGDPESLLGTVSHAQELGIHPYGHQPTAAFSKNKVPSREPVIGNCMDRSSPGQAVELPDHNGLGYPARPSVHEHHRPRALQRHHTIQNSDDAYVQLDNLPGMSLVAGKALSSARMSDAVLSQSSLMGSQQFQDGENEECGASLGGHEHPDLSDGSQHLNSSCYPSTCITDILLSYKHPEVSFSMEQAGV
# In short: as §1
# BCR = molecular target: T2, BCR (UniProt P11274); settings: cell material: Lysate mix
# T2 sequence (whole entry): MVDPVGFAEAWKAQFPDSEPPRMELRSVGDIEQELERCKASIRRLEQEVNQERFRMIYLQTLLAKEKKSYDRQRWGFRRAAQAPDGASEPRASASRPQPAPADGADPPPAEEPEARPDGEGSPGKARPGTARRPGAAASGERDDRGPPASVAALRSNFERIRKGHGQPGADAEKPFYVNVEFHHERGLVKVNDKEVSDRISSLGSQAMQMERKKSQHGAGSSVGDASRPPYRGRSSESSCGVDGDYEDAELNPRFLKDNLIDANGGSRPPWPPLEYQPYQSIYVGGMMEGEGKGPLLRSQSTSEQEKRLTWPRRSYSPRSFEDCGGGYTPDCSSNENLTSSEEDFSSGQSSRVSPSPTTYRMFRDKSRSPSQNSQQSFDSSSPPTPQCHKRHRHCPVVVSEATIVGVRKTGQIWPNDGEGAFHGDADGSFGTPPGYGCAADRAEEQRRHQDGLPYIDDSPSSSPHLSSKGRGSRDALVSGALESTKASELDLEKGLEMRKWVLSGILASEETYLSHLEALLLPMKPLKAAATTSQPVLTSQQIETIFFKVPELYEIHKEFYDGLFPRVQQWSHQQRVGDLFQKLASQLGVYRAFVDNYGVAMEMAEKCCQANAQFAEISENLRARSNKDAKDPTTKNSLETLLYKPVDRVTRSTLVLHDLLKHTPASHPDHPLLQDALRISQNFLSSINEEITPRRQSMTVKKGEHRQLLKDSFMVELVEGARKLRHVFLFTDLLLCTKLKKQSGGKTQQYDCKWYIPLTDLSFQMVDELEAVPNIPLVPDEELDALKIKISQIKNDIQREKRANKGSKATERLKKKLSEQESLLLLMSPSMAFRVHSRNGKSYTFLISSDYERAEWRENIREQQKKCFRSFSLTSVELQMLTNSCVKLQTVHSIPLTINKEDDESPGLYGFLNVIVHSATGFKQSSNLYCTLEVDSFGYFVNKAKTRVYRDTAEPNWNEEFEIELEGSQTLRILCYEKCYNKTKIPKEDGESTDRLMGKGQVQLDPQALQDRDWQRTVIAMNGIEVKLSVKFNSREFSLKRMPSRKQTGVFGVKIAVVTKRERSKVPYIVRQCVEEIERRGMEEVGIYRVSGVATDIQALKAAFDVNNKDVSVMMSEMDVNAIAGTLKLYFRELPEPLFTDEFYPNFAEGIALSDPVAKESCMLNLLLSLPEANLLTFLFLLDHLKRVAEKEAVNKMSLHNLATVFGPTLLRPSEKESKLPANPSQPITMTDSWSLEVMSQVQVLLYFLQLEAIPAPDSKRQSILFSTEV
# In short: as §1
pIC50 (MAP4K2; cell material: Lysate mix),pIC50 (UniProt Q9Y2K2; cell material: Lysate mix),pIC50 (BCR),pIC50 (UniProt Q9Y2K2; cell material: Jurkat cells),SMILES,pIC50 (MAP4K2; cell material: Jurkat cells),pIC50 (MAP4K2; cell material: Jurkat lysate),pIC50 (UniProt Q9Y2K2; cell material: Jurkat lysate)
4.81,< 4.52,< 4.52,,C#CCNC(=O)c1cc(Nc2cc(C)[nH]n2)nc(N2CCN(Cc3ccc(S(=O)(=O)F)cc3)CC2)n1,,,
< 4.52,< 4.52,< 4.52,< 4.52,O=C(NCCNC(=O)c1cc(Nc2cc(C3CC3)[nH]n2)nc(N2CCN(Cc3ccc(S(=O)(=O)F)cc3)CC2)n1)OC1CC/C=C/CCC1 (stereo not given),5.33,< 4.52,< 4.52
4.88,< 4.52,< 4.52,,CCNC(=O)c1cc(Nc2cc(C3CC3)[nH]n2)nc(N2CCN(Cc3ccc(S(=O)(=O)F)cc3)CC2)n1,,,
4.7,< 4.52,< 4.52,,CCNC(=O)c1cc(Nc2cc(C)[nH]n2)nc(N2CCN(Cc3ccc(S(=O)(=O)F)cc3)CC2)n1,,,
< 4.52,< 4.52,< 4.52,,Cc1cc(Nc2cc(C(=O)NCCNC(=O)OC3CC/C=C/CCC3)nc(N3CCN(Cc4ccc(S(=O)(=O)F)cc4)CC3)n2)n[nH]1 (stereo not given),,,

SMILES,pIC50 (MAP4K2; cell material: Lysate mix),pIC50 (UniProt Q9Y2K2; cell material: Lysate mix),pIC50 (BCR),pIC50 (UniProt Q9Y2K2; cell material: Jurkat cells),pIC50 (MAP4K2; cell material: Jurkat cells),pIC50 (MAP4K2; cell material: Jurkat lysate),pIC50 (UniProt Q9Y2K2; cell material: Jurkat lysate)
C#CCNC(=O)c1cc(Nc2cc(C3CC3)[nH]n2)nc(N2CCN(Cc3ccc(S(=O)(=O)F)cc3)CC2)n1,5.36,< 4.52,< 4.52,,5.92,4.56,< 4.52

# Reference: the supplement of paper PMC12076712
